Measured values: US11685747B2, “Compounds that inhibit MCL-1 protein” (AMGEN INC., priority 2014, dated 2023)

Columns and labels:
[1] = target: T1, Mcl-1/Bak protein-protein interactions (Homo sapiens, UniProt Q07820); assay: Cell-based split luciferase complementation assay; conditions: HEK 293 M cells, serum-free, 4 h
T1 construct: expressed in transfected cells; host or cells: HEK 293 M cells, transient transfection

[2] = target: T2, recombinant human Mcl-1 (Homo sapiens, UniProt Q07820); assay: Cell free Mcl-1:Bim affinity assay (Mcl-1 HTRF, TR-FRET); format: binding; conditions: inhibition of Mcl-1/Bim interaction
T2 construct: C-terminally 6×His tagged Mcl-1 containing residues 171-327; made in house

[3] = tested on: OPM-2; assay: Cell viability assay (OPM-2 10 FBS, CellTiter-Glo); format: cell-based, human; conditions: OPM-2 cells

T1 sequence (Q07820 whole entry): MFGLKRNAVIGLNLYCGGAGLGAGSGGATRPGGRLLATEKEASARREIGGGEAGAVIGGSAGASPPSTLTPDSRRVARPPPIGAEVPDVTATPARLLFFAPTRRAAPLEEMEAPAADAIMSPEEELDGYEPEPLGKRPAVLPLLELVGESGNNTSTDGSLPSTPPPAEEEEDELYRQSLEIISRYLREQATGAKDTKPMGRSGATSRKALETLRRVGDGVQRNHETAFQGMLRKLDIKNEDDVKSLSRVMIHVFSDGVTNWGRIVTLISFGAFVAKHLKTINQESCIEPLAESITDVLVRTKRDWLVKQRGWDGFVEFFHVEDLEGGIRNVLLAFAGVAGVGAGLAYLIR
T2 sequence (Q07820 171-327): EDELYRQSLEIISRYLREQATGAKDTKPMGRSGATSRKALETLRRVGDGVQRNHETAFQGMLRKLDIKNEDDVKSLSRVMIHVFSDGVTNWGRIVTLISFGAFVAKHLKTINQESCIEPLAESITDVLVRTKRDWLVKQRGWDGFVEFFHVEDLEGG

SMILES | IC50 [1] | IC50 [2] | IC50 ([3]; 16 h) | IC50 ([3]; Homo sapiens, OPM-2, 16 h)
CC(C)O[C@H]1/C=C/C[C@H](C)[C@@H](C)S(=O)(=O)NC(=O)c2ccc3c(c2)N(C[C@@H]2CC[C@H]21)C[C@@]1(CCCc2cc(Cl)ccc21)CO3 [Example 43, (1S,3′R,6′R,7′S,8′E,11′S,12′R)-6-Chloro-11′,12′-Dimethyl-7′-(1-Methylethoxy)-3,4-Dihydro-2H,15′H-Spiro[Naphthalene-1,22′-[20]Oxa[13]Thia[1,14]Diazatetracyclo[14.7.2.0^3,6.0^19,24]Pentacos A[8,16,18,24]Tetraen]-15′-One-13′,13′-Dioxide] | 130 nM | 1.75 nM |  | 902 nM
C[C@H]1C/C=C/[C@H](O)[C@@H]2CC[C@H]2CN2C[C@@]3(CCCc4cc(Cl)ccc43)COc3ccc(cc32)C(=O)NS(=O)(=O)[C@@H]1C1CC1 (single isomer, unassigned) [Example 46] | 78.3 nM | 0.728 nM | 334 nM | 
CC(C)[C@@H]1[C@H](C)C/C=C/[C@H](O)[C@@H]2CC[C@H]2CN2C[C@@]3(CCCc4cc(Cl)ccc43)COc3ccc(cc32)C(=O)NS1(=O)=O (single isomer, unassigned) [Example 51] | 792 nM | 24.3 nM | 14400 nM | 
CO[C@H]1/C=C/C[C@H](C)[C@@H](C2CC2)S(=O)(=O)NC(=O)c2ccc3c(c2)N(C[C@@H]2CC[C@H]21)C[C@@]1(CCCc2cc(Cl)ccc21)CO3 [Example 48, (1S,3′R,6′R,7′S,8′E,11′S,12′S)-6-Chloro-12′-Cyclopropyl-7′-Methoxy-11′-Methyl-3,4-Dihydro-2H,15′H-Spiro [Naphthalene-1,22′-[20]Oxa[13]Thia[1,14]Diazatetracyclo[14.7.2.0^3,6.0^19,24]Pentacosa[8,16,18,24]Tetraen]-15′-One 13′,13′-Dioxide] | 477 nM | 3.89 nM |  | 5580 nM
COCCO[C@H]1/C=C/C[C@@H](C)CS(=O)(=O)NC(=O)c2ccc3c(c2)N(C[C@@H]2CC[C@H]21)C[C@@]1(CCCc2cc(Cl)ccc21)CO3 (single isomer, unassigned) [Example 77] | 260 nM | 6.12 nM | 3160 nM | 
COCCO[C@H]1/C=C/C[C@H](C)[C@@H](C)S(=O)(=O)NC(=O)c2ccc3c(c2)N(C[C@@H]2CC[C@H]21)C[C@@]1(CCCc2cc(Cl)ccc21)CO3 [Example 74, (1S,3′R,6′R,7′S,8′E,11′S,12′R)-6-Chloro-7′-(2-Methoxyethoxy)-11′,12′-Dimethyl-3,4-Dihydro-2H,15′H-Spiro[Naphthalene-1,22′-[20]Oxa[13]Thia[1,14]Diazatetracyclo[14.7.2.0^3,6.0^19,24]Pentacosa[8,16,18,24]Tetraen]-15′-One-13′, 13′-Dioxide] | 273 nM | 2.23 nM |  | 1740 nM
CC[C@@H]1C/C=C/[C@H](O)[C@@H]2CC[C@H]2CN2C[C@@]3(CCCc4cc(Cl)ccc43)COc3ccc(cc32)C(=O)NS(=O)(=O)C1 (single isomer, unassigned) [Example 33] | 872 nM | 7.02 nM |  | 14900 nM
CCCCO[C@H]1/C=C/C[C@H](C)[C@@H](C)S(=O)(=O)NC(=O)c2ccc3c(c2)N(C[C@@H]2CC[C@H]21)C[C@@]1(CCCc2cc(Cl)ccc21)CO3 [Example 73, (1S,3′R,6′R,7′S,8′E,11′S,12′R)-7′-Butoxy-6-Chloro-11′,12′-Dimethyl-3,4-Dihydro-2H,15′H-Spiro[Naphthalene-1,22′ [20]Oxa[13]Thia[1,14]Diazatetracyclo[14.7.2.0^3,6.0^19,24]Pentacos A[8,16,18,24]Tetraen]-15′-One 13′,13′-Dioxide] | 34.4 nM | 0.367 nM |  | 174 nM

Further lines, with some results ahead:

IC50 [1] | IC50 [2] | SMILES | IC50 ([3]; 16 h) | IC50 ([3]; Homo sapiens, OPM-2, 16 h)
61.5 nM | 0.492 nM | C[C@H]1C/C=C/[C@H](O)[C@@H]2CC[C@H]2CN2C[C@@]3(CCCc4cc(Cl)ccc43)COc3ccc(cc32)C(=O)NS(=O)(=O)[C@@H]1CC1CC1 (single isomer, unassigned) [Example 59] | 247 nM | 
57.5 nM | 0.447 nM | C[C@@H]1[C@@H](C)CCC[C@H](O)[C@@H]2CC[C@H]2CN2C[C@@]3(CCCc4cc(Cl)ccc43)COc3ccc(cc32)C(=O)NS1(=O)=O [Example 6, (1S,3′R,6′R,7′S,11′S,12′R)-6-Chloro-7′-Hydroxy-11′,12′-Dimethyl-3,4-Dihydro-2H,15′H-Spiro[Naphthalene-1,22′-[20]Oxa[13]Thia[1,14]Diazatetracyclo[14.7.2.0^3,6.0^19,24]Pentacos A[16,18,24]Trien]-15′-One 13′,13′-Dioxide] |  | 394 nM
31.9 nM | 0.289 nM | C[C@H]1C/C=C/[C@H](O)[C@@H]2CC[C@H]2CN2C[C@@]3(CCCc4cc(Cl)ccc43)COc3ccc(cc32)C(=O)NS(=O)(=O)[C@@H]1C1CCC1 (single isomer, unassigned) [Example 56] | 208 nM | 
46.2 nM | 0.317 nM | CC(C)[C@@H]1[C@H](C)C/C=C/[C@H](O)[C@@H]2CC[C@H]2CN2C[C@@]3(CCCc4cc(Cl)ccc43)COc3ccc(cc32)C(=O)NS1(=O)=O (single isomer, unassigned) [Example 49] | 184 nM | 
23.4 nM | 0.514 nM | C[C@H]1C/C=C/[C@H](O)[C@@H]2CC[C@H]2CN2C[C@@]3(CCCc4cc(Cl)ccc43)COc3ccc(cc32)C(=O)NS(=O)(=O)[C@@H]1CC1CC1 (single isomer, unassigned) [Example 60] | 158 nM | 
